Measured values from PubChem BioAssay AID652280 (Broad Institute, 2013).
Inconclusive results are not listed. The source made the active and inactive calls. No rule for the calls is given here.

Assay: mouse embryonic fibroblast toxicity – cell-based, plate reader, dry powder, set 2, cytotoxicity control, dose response (AID 652280)
Details: NIH/3T3 mouse fibroblast toxicity, plate reader

Row | SMILES | activity change, negative = toxicity (at 16 µM (top of the series)) | activity change, negative = toxicity (at 18 µM (top of the series))
1 | CC(C)N1C[C@@H](CN(C)Cc2ccc(Cl)cc2)Oc2c(NC(=O)c3ncn[nH]3)cccc2C1=O | 0.096% (inactive) | –
2 | CC(C)N1C[C@@H](C)[C@H](CN(C)Cc2ccc(Oc3ccccc3)cc2)Oc2c(C(=O)O)cccc2C1=O | 9.6% (inactive) | –
3 | O=C(CN1CCOCC1)N1CCCCN2[C@@H](CO)[C@H](c3ccc(Br)cc3)[C@@H]2C1 | 2.42% (inactive) | –
4 | CC(C)N1C(=O)c2cccc(NC(=O)c3ccncc3)c2O[C@H](CN(C)Cc2ccc(Cl)cc2)[C@H]1C | -1.14% (inactive) | –
5 | CC(C)N1C[C@@H](CN)Oc2c(NC(=O)c3ccncc3)cccc2C1=O | 22.7% (inactive) | –
6 | CC(C)N1C[C@H](CN(C)Cc2ccc(Cl)cc2)Oc2c(NC(=O)c3ccncc3)cccc2C1=O | -35.4% (inactive) | –
7 | C[C@@H](CO)N1CC[C@H](CNC(=O)OC(C)(C)C)Oc2c(NC(=O)c3ccncc3)cccc2C1=O | 2.74% (inactive) | –
8 | CN(C)CC#Cc1cccc(-c2nc(C(=O)NCc3ccc4c(c3)OCO4)cc3c2[C@H](CCO)N(S(=O)C(C)(C)C)C3)c1 (some centres not stated) | 6.62% (inactive) | –
9 | CC(=O)N1CCCCN2[C@@H](CO)[C@H](c3ccc(-c4cccc(C(=O)N(C)C)c4)cc3)[C@@H]2C1 | 24.4% (inactive) | –
10 | CC(C)N1C[C@H](CNCc2ccc(Oc3ccccc3)cc2)Oc2c(NC(=O)c3ccncc3)cccc2C1=O | 5.88% (inactive) | –
11 | CN(C)CC#Cc1cccc(-c2nc(C(=O)N3CCN(C)CC3)cc3c2[C@@H](CCO)N(S(=O)C(C)(C)C)C3)c1 (some centres not stated) | 18.9% (inactive) | –
12 | CC(C)N1C[C@@H](CN(C)Cc2ccc(Cl)cc2)Oc2c(NC(=O)c3ccncc3)cccc2C1=O | -18% (inactive) | –
13 | C[C@H]1CN([C@@H](C)CO)C(=O)c2cccc(NC(=O)c3ccncc3)c2O[C@@H]1CN(C)Cc1cccc(C(F)(F)F)c1 | -10.7% (inactive) | –
14 | C[C@H]1CN([C@@H](C)CO)C(=O)c2cccc(NC(=O)c3ccncc3)c2O[C@@H]1CN(C)Cc1cccc(Cl)c1 | -20.7% (inactive) | –
15 | CC(C)N1C[C@@H](CN(C)Cc2ccc(Cl)cc2)Oc2c(NC(=O)c3ccnnc3)cccc2C1=O | 2.62% (inactive) | –
16 | Cc1ccc(S(=O)(=O)N(C)C[C@H]2OCCCC[C@@H](C)Oc3ccc(N(C)C)cc3C(=O)N([C@H](C)CO)C[C@@H]2C)cc1 | – | 25.8% (inactive)
17 | COCC(=O)N1CCCCN2[C@@H](CO)[C@H](c3ccc(-c4cccc(C)c4)cc3)[C@@H]2C1 | -12.3% (inactive) | –
18 | C[C@H]1CN([C@@H](C)CO)C(=O)c2cccc(NC(=O)c3ccncc3)c2O[C@@H]1CN(C)Cc1ccc(Oc2ccccc2)cc1 | 12.9% (inactive) | –
19 | CC(C)N1C[C@@H](C)[C@H](CN(C)C(=O)OC(C)(C)C)Oc2c(C(N)=O)cccc2C1=O | 12.8% (inactive) | –
20 | COCCNC(=O)c1cc2c(c(-c3cccc(C#CCN(C)C)c3)n1)[C@@H](CCO)N(S(=O)C(C)(C)C)C2 (some centres not stated) | 5.61% (inactive) | –
21 | CN(C)C(=O)c1cccc(-c2ccc([C@H]3[C@H]4CN(C(=O)C5CCC5)CCCCN4[C@H]3CO)cc2)c1 | 24.3% (inactive) | –
22 | COc1ccccc1CN(C)C[C@H]1Oc2c(NC(=O)c3ccncc3)cccc2C(=O)N([C@@H](C)CO)C[C@@H]1C | -28.8% (inactive) | –
23 | CC(C)N1CC2(CN(CC3CCCCC3)C2)Oc2c(NC(=O)c3ccncc3)cccc2C1=O | 9.84% (inactive) | –
24 | CC(C)N1CC2(CN(C(=O)OC(C)(C)C)C2)Oc2c(NC(=O)c3ccncc3)cccc2C1=O | -9.89% (inactive) | –

Row | SMILES | activity change, negative = toxicity (at 16 µM (top of the series)) | activity change, negative = toxicity (at 18 µM (top of the series))
25 | CC(C)N1C[C@@H](C)[C@H](CN(C)C(=O)OC(C)(C)C)Oc2c(C(=O)O)cccc2C1=O | 14.1% (inactive) | –
26 | CC(C)N1CC[C@H](CN(C)Cc2ccc(Oc3ccccc3)cc2)Oc2c(NC(=O)c3ccncc3)cccc2C1=O | -22.1% (inactive) | –
27 | CC(C)N1CC2(CN(C(=O)c3ccc(Cl)cc3)C2)Oc2c(NC(=O)c3ccncc3)cccc2C1=O | 10.5% (inactive) | –
28 | COc1ccc(CCN(C)C(=O)C2CCCN(Cc3ccc(OC)c(OC)c3)C2)cc1OC (configuration not stated) | 6.14% (inactive) | –
29 | CC(c1ccc(Cl)cc1)N1CC2(C1)CN(C(C)C)C(=O)c1cccc(NC(=O)c3ccncc3)c1O2 (configuration not stated) | 6.05% (inactive) | –
30 | COc1cccc(-c2ccc([C@H]3[C@H](CO)N4CCCCN(C(=O)Cc5ccncc5)C[C@@H]34)cc2)c1 | -1.62% (inactive) | –
31 | CN(C)C(=O)c1cccc(-c2ccc([C@H]3[C@H](CO)N4CCCCN(Cc5cccnc5)C[C@@H]34)cc2)c1 | -3% (inactive) | –
32 | CN(C)C(=O)c1cccc(-c2ccc([C@H]3[C@@H](CO)N4CCCCN(C(=O)C5CCC5)C[C@H]34)cc2)c1 | 9.2% (inactive) | –
33 | CN(C)CC#Cc1cccc(-c2nc(C(=O)NCc3ccc(Oc4ccccc4)cc3)cc3c2[C@H](CCO)N(S(=O)C(C)(C)C)C3)c1 (some centres not stated) | 63.9% (inactive) | –
34 | C[C@@H]1CN([C@H](C)CO)C(=O)c2cccc(NC(=O)c3ccncc3)c2O[C@H]1CN(C)Cc1ccc2c(c1)OCO2 | -14.9% (inactive) | –
35 | CN(C)CC#Cc1cccc(-c2nc(C(=O)N3CCN(C)CC3)cc3c2[C@H](CCO)N(S(=O)C(C)(C)C)C3)c1 (some centres not stated) | 16.4% (inactive) | –
36 | CC(C)N1C[C@@H](CN(C)Cc2ccc(Cl)cc2)Oc2c(NC(=O)c3ccnn3C)cccc2C1=O | 5.57% (inactive) | –
37 | C[C@H]1CN([C@@H](C)CO)C(=O)c2cccc(NC(=O)c3ccncc3)c2O[C@@H]1CN(C)Cc1ccccc1C(F)(F)F | 14.1% (inactive) | –
38 | O=C(Cc1ccccn1)N1CCCCN2[C@@H](CO)[C@H](c3ccc(Br)cc3)[C@@H]2C1 | 9.05% (inactive) | –
39 | COc1cccc(CN(C)C[C@H]2Oc3c(NC(=O)c4ccncc4)cccc3C(=O)N([C@@H](C)CO)C[C@@H]2C)c1 | 6.03% (inactive) | –
40 | COCCNC(=O)c1cc2c(c(-c3cccc(C#CCN(C)C)c3)n1)[C@H](CCO)N(S(=O)C(C)(C)C)C2 (some centres not stated) | 20.8% (inactive) | –
41 | COc1ccc(S(=O)(=O)N(C)C[C@H]2OCCCC[C@H](C)Oc3ccc(N(C)C)cc3C(=O)N([C@H](C)CO)C[C@@H]2C)cc1 | 10% (inactive) | –
42 | CN(C)CC#Cc1cccc(-c2nc(C(=O)O)cc3c2[C@H](CCO)N(S(=O)C(C)(C)C)C3)c1 (some centres not stated) | -1.94% (inactive) | –
43 | CC(C)N1C[C@@H](CN(C)Cc2ccc(Cl)cc2)Oc2c(C(=O)Nc3ccncc3)cccc2C1=O | -18.4% (inactive) | –
44 | C[C@@H]1CN([C@@H](C)CO)C(=O)c2cccc(NC(=O)c3ccncc3)c2O[C@@H]1CN(C)Cc1ccc(Oc2ccccc2)cc1 | 15.4% (inactive) | –
45 | CN(C)CC#Cc1cccc(-c2nc(C(=O)NCc3ccc4c(c3)OCO4)cc3c2[C@@H](CCO)N(S(=O)C(C)(C)C)C3)c1 (some centres not stated) | 0.74% (inactive) | –
46 | CN(C)C(=O)c1cccc(-c2ccc([C@@H]3[C@@H](CO)N4CCCCN(C(=O)C5CCC5)C[C@@H]34)cc2)c1 | 0.445% (inactive) | –
47 | CC(C)N1C[C@@H](CN(C)Cc2ccc(Cl)cc2)Oc2c(NC(=O)c3ccncn3)cccc2C1=O | -18.8% (inactive) | –
